{"source": "patent US20070203098A1", "about": "“Pten Inhibitors” (priority 2004, published 2007)", "assay_type_in_all_cases": "biochemical", "key": {"PTEN [1]": {"molecular_target": "T1, PTEN (Homo sapiens, UniProt P60484)", "T1 sequence (P60484 whole entry, species assumed)": "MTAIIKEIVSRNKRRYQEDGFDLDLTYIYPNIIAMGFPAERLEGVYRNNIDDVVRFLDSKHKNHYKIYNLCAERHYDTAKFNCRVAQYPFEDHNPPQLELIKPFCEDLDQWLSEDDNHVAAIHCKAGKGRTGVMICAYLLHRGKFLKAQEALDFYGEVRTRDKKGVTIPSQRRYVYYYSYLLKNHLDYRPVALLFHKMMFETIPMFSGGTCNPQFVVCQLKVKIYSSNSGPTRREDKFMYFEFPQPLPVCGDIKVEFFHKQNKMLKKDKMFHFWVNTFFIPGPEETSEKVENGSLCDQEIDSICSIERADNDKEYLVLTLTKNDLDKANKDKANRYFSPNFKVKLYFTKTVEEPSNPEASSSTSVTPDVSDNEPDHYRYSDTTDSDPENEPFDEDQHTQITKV", "assay": "PTEN Inhibition Assay: General Screening"}, "PTEN [2]": {"molecular_target": "T1, PTEN", "assay": "PTEN Inhibition Assay: IC50 Determinations"}, "PTP1B": {"molecular_target": "T2, PTP1B (Homo sapiens, UniProt P18031)", "T2 sequence (P18031 1-435)": "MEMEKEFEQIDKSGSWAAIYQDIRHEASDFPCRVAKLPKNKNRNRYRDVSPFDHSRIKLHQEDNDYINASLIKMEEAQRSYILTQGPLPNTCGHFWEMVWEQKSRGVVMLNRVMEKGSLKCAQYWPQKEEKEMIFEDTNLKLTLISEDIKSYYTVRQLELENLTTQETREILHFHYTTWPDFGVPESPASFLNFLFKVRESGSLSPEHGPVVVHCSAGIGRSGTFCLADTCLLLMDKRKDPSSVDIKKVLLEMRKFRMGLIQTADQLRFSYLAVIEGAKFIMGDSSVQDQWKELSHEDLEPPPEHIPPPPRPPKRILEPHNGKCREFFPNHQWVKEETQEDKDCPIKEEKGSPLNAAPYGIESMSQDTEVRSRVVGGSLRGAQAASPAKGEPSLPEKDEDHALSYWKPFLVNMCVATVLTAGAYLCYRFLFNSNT", "assay": "PTP1B Inhibition Assay: IC50 Determinations"}, "[3]": {"conditions": "250 uM, Table 22 imidazoles, read-out: % Inhibition at 250 uM"}, "[4]": {"conditions": "250 uM, Table 24 known PTP inhibitors, read-out: % Inhibition at 250 uM"}, "[5]": {"conditions": "read-out: % Inhibition @ 250 uM"}, "[6]": {"conditions": "250 uM, Table 27 isatins, read-out: % Inhibition @250 uM"}, "[7]": {"conditions": "read-out: % Inhibition at 250 uM"}, "[8]": {"conditions": "250 uM, Table 23 polyamides, read-out: % Inhibition @250 uM"}}, "note": "Where a name gives a salt, the structure may show the parent alone. Read-outs that look alike come from different tables or passages of the source.", "data": [{"compound": "CC(C)(C)c1ccc(C(=O)NNC(=O)c2ccc(C(C)(C)C)cc2)cc1", "note": "[SF1733-000]", "values": [{"measurement": "inhibition at 250 µM", "setting": "PTEN [1]; [3]", "value": 15.9, "unit": "%"}]}, {"compound": "O=P(O)(O)OC(CO)CO", "note": "[SF1685-100, β-Glycerophosphate, Disodium Salt, Pentahydrate, reference compound]", "values": [{"measurement": "inhibition at 250 µM", "setting": "PTEN [1]; [4]", "value": 10.9, "unit": "%"}]}, {"compound": "O=C(CCCc1ccccc1)Nc1ccc2c(c1)C(=O)C(=O)c1ccccc1-2", "note": "[SF1785-000]", "values": [{"measurement": "inhibition at 250 µM", "setting": "PTEN [1]; [5]", "value": 97.9, "unit": "%"}, {"measurement": "IC50", "setting": "PTEN [2]", "value": 5, "unit": "µM"}, {"measurement": "IC50", "setting": "PTP1B", "value": "1 to 10", "unit": "µM"}]}, {"compound": "O=C(O)CCC(=O)Nc1ccc2c(c1)C(=O)C(=O)c1ccccc1-2", "note": "[SF1804-000]", "values": [{"measurement": "inhibition at 250 µM", "setting": "PTEN [1]; [5]", "value": 98.6, "unit": "%"}, {"measurement": "IC50", "setting": "PTEN [2]", "value": 54.7, "unit": "µM"}, {"measurement": "IC50", "setting": "PTP1B", "value": "1 to 10", "unit": "µM"}]}, {"compound": "O=C(CNc1ccc2c(c1)C(=O)C(=O)c1ccccc1-2)OCc1ccccc1", "note": "[SF1807-000]", "values": [{"measurement": "inhibition at 250 µM", "setting": "PTEN [1]; [5]", "value": 93.9, "unit": "%"}, {"measurement": "IC50", "setting": "PTP1B", "value": "< 1", "unit": "µM"}]}, {"compound": "O=C1Nc2ccc(F)cc2C1=O", "note": "[SF1820-000]", "values": [{"measurement": "inhibition at 250 µM", "setting": "PTEN [1]; [6]", "value": 94.6, "unit": "%"}, {"measurement": "IC50", "setting": "PTEN [2]; Table 29, read-out: PTEN IC50", "value": 61.9, "unit": "µM"}, {"measurement": "IC50", "setting": "PTP1B; Table 29, read-out: PTP1B IC50", "value": "10 to 100", "unit": "µM"}]}, {"compound": "O=C1Nc2ccc(Br)cc2C1=O", "note": "[SF1814-000]", "values": [{"measurement": "inhibition at 250 µM", "setting": "PTEN [1]; [6]", "value": 97.6, "unit": "%"}, {"measurement": "IC50", "setting": "PTEN [2]", "value": 44.9, "unit": "µM"}, {"measurement": "IC50", "setting": "PTP1B", "value": "10 to 100", "unit": "µM"}]}, {"compound": "CC(C)c1ccccc1OCC(=O)Nc1ccc2c(c1)C(=O)C(=O)c1ccccc1-2", "note": "[SF1772-000]", "values": [{"measurement": "inhibition at 250 µM", "setting": "PTEN [1]; [5]", "value": 99.4, "unit": "%"}, {"measurement": "IC50", "setting": "PTEN [2]; Table 29, read-out: PTEN IC50", "value": 0.435, "unit": "µM"}, {"measurement": "IC50", "setting": "PTP1B; Table 29, read-out: PTP1B IC50", "value": 0.681, "unit": "µM"}]}, {"compound": "CC12CCC(C)(O1)C(C(=O)O)C2C(=O)O", "note": "(stereo not shown) [SF1676-000, 1,4-Dimethylendothall, reference compound]", "values": [{"measurement": "inhibition at 250 µM", "setting": "PTEN [1]; [7]", "value": 3.3, "unit": "%"}]}, {"compound": "COc1cccc(OCC(=O)Nc2ccc3c(c2)C(=O)C(=O)c2ccccc2-3)c1", "note": "[SF1788-000]", "values": [{"measurement": "inhibition at 250 µM", "setting": "PTEN [1]; [5]", "value": 96.9, "unit": "%"}, {"measurement": "IC50", "setting": "PTEN [2]; Table 29, read-out: PTEN IC50", "value": 0.41, "unit": "µM"}, {"measurement": "IC50", "setting": "PTP1B; Table 29, read-out: PTP1B IC50", "value": "< 1", "unit": "µM"}]}, {"compound": "Oc1cc2ccccc2c2ccccc12", "note": "[SF1734-000]", "values": [{"measurement": "IC50", "setting": "PTEN [2]", "value": 33, "unit": "µM"}]}, {"compound": "CCOC(=O)c1cccc(OCC(=O)Nc2ccc3c(c2)C(=O)C(=O)c2ccccc2-3)c1", "note": "[SF1811-000]", "values": [{"measurement": "inhibition at 250 µM", "setting": "PTEN [1]; [5]", "value": 98.6, "unit": "%"}]}, {"compound": "O=C(O)[C@@H]1[C@H](C(=O)O)[C@H]2CC[C@@H]1O2", "note": "[SF1686-000, Endothall, reference compound]", "values": [{"measurement": "inhibition at 250 µM", "setting": "PTEN [1]; [7]", "value": -1.2, "unit": "%"}]}, {"compound": "Monoperoxo(picolinato)oxovanadate(V) [SF1677-000, reference compound]", "values": [{"measurement": "% Inh. @ 250 uM in PTEN Assay", "setting": "PTEN [1]", "value": 96.9, "unit": "%"}]}, {"compound": "Cc1cccc(-n2cnc(C(=O)NNC(=O)c3ccc(C(C)(C)C)cc3)c2)n1", "note": "[SF1708-000]", "values": [{"measurement": "inhibition at 250 µM", "setting": "PTEN [1]; [3]", "value": "57 to 95", "unit": "%"}, {"measurement": "IC50", "setting": "PTEN [2]; Table 29, read-out: PTEN IC50", "value": 50, "unit": "µM"}, {"measurement": "IC50", "setting": "PTP1B; Table 29, read-out: PTP1B IC50", "value": 60, "unit": "µM"}]}, {"compound": "O=C1C(=O)c2ccccc2-c2ccccc21", "note": "[SF1721-000]", "values": [{"measurement": "inhibition at 250 µM", "setting": "PTEN [1]; [5]", "value": 99.7, "unit": "%"}, {"measurement": "IC50", "setting": "PTEN [2]", "value": 3.4, "unit": "µM"}, {"measurement": "IC50", "setting": "PTP1B", "value": 17, "unit": "µM"}]}, {"compound": "Cc1ccc(C(=O)Nc2ccc(S(=O)(=O)O)c3cc(S(=O)(=O)O)cc(S(=O)(=O)O)c23)cc1NC(=O)c1cccc(NC(=O)Nc2cccc(C(=O)Nc3cc(C(=O)Nc4ccc(S(=O)(=O)O)c5cc(S(=O)(=O)O)cc(S(=O)(=O)O)c45)ccc3C)c2)c1", "note": "[SF1672-100, Suramin, Sodium Salt, reference compound]", "values": [{"measurement": "inhibition at 250 µM", "setting": "PTEN [1]; [4]", "value": -9.9, "unit": "%"}]}, {"compound": "O=C(CCC(=O)NNC(=O)COc1ccc(Cl)cc1)NNC(=O)COc1ccc(Cl)cc1", "note": "[SF1516-000]", "values": [{"measurement": "inhibition at 250 µM", "setting": "PTEN [1]; [8]", "value": 35.3, "unit": "%"}]}, {"compound": "CCOC(=O)CNC(=O)C(c1ccc(O)cc1)N(C(=O)c1snc(C(N)=O)c1N)c1ccc2c(c1)OCO2", "note": "(stereo not shown) [SF1552-000]", "values": [{"measurement": "inhibition at 250 µM", "setting": "PTEN [1]; [8]", "value": 52.4, "unit": "%"}]}, {"compound": "O=C1C=Cc2ccccc2C1=O", "note": "[SF1736-000]", "values": [{"measurement": "IC50", "setting": "PTEN [2]", "value": 21, "unit": "µM"}]}, {"compound": "O=C(COc1ccccc1)Nc1ccc2c(c1)C(=O)C(=O)N2", "note": "[SF1781-000]", "values": [{"measurement": "inhibition at 250 µM", "setting": "PTEN [1]; [6]", "value": 97.8, "unit": "%"}, {"measurement": "IC50", "setting": "PTEN [2]; Table 29, read-out: PTEN IC50", "value": 18.9, "unit": "µM"}, {"measurement": "IC50", "setting": "PTP1B; Table 29, read-out: PTP1B IC50", "value": 0.294, "unit": "µM"}]}, {"compound": "CC1(C)C(C=C(Cl)Cl)[C@H]1C(=O)O[C@@H](C#N)c1cccc(Oc2ccccc2)c1", "note": "(stereo in doubt) [SF1687-000, Cypermethrin, reference compound]", "values": [{"measurement": "inhibition at 250 µM", "setting": "PTEN [1]; [7]", "value": -5.9, "unit": "%"}]}, {"compound": "Nc1ccc2c(c1)C(=O)C(=O)c1ccccc1-2", "note": "[SF1789-000]", "values": [{"measurement": "inhibition at 250 µM", "setting": "PTEN [1]; [5]", "value": 99, "unit": "%"}, {"measurement": "IC50", "setting": "PTEN [2]", "value": 0.776, "unit": "µM"}, {"measurement": "IC50", "setting": "PTP1B", "value": 2.97, "unit": "µM"}]}, {"compound": "CC1(C(=O)O)C2CCC(O2)C1(C)C(=O)O", "note": "(stereo not shown) [SF1679-000, Cantharidic Acid, reference compound]", "values": [{"measurement": "inhibition at 250 µM", "setting": "PTEN [1]; [7]", "value": 2.7, "unit": "%"}]}, {"compound": "Cc1cc(C)cc(S(=O)(=O)Nc2ccc3c(c2)C(=O)C(=O)c2ccccc2-3)c1", "note": "[SF1801-000]", "values": [{"measurement": "inhibition at 250 µM", "setting": "PTEN [1]; [5]", "value": 95.3, "unit": "%"}, {"measurement": "IC50", "setting": "PTEN [2]", "value": 1.01, "unit": "µM"}, {"measurement": "IC50", "setting": "PTP1B", "value": "< 10", "unit": "µM"}]}, {"compound": "O=C1C(=O)c2cc([N+](=O)[O-])ccc2-c2ccccc21", "note": "[SF1722-000]", "values": [{"measurement": "inhibition at 250 µM", "setting": "PTEN [1]; [5]", "value": 99.3, "unit": "%"}, {"measurement": "IC50", "setting": "PTEN [2]", "value": 4, "unit": "µM"}]}, {"compound": "CC(C)=C[C@@H]1[C@H](C(=O)OCc2coc(Cc3ccccc3)c2)C1(C)C", "note": "(mixture of isomers) [SF1671-000, 5-Benzyl-3-furylmethyl (1R,S)-cis,trans-chrysanthemate, reference compound]", "values": [{"measurement": "inhibition at 250 µM", "setting": "PTEN [1]; [7]", "value": 9.6, "unit": "%"}]}, {"compound": "O=C1C=CC(=O)c2ccccc21", "note": "[SF1737-000]", "values": [{"measurement": "IC50", "setting": "PTEN [2]", "value": 43, "unit": "µM"}]}]}
